Where two headings read alike, the source gives them in different places.
Experiments:
[1] = tested on: IL-6 cytokine output from THP-1s; assay: THP-1 AlphaLISA IL-6 cytokine inhibition assay; type: cell-based; settings: Homo sapiens
Summary of the method: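 THP-1 cells differentiated with PMA for 72 h, then pre-incubated with compound 30 min, stimulated with LPS 24 h, then Nigericin 1 h, all at 37° C. Supernatant IL-6 measured by AlphaLISA. Percentage inhibition normalized to +/− LPS plate controls.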

[2] = Hepatocyte stability assay, human; type: in vitro ADME; settings: human, hepatocytes; for hepatocyte CLint at 10 μM: Hepatocyte stability Clint; for half-life at 10 μM: Hepatocyte stability T½
Summary of the method: (§1)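 Metabolic stability was measured as depletion of 10 μM compound in thawed hepatocytes (0.5×10^6 cells/mL, 37° C, up to 60 min). Intrinsic clearance came from the slope of log-transformed percentage remaining.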

[3] = tested on: NRF2 (nuclear factor erythroid 2-related factor 2); assay: NRF2 +/-GSH activation assay (DiscoverX PathHunter NRF2 translocation kit, U2OS cells); type: cell-based; settings: for NRF2 activation +GSH Emax / NRF2 activation −GSH Emax / −GSH Emax: normalised to DMF high control
Summary of the method: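 Activation is expressed as percent of plate DMF (high) versus no-DMF (low) controls, from luminescence after 6 h compound exposure at 37 °C of U2OS PathHunter cells. The +GSH condition used compound pre-incubated 30 min in 6 mM working GSH; −GSH cells received compound directly.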

[4] = tested on: IL-1β cytokine output from THP-1s; assay: THP-1 AlphaLISA IL-1β cytokine inhibition assay; type: cell-based; settings: for IC50: Homo sapiens
Summary of the method: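 IL-1β release by AlphaLISA, expressed as % inhibition against +/− LPS controls on each plate. Differentiation: PMA, 72 h. Sequence: 30 min compound pre-treatment, LPS 24 h, Nigericin 1 h before supernatant harvest, all at 37° C./5% CO2.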

[5] = Hepatocyte stability assay, mouse; type: in vitro ADME; settings: mouse, hepatocytes; for hepatocyte CLint at 10 μM: Hepatocyte stability Clint; for half-life at 10 μM: Hepatocyte stability T½
Summary of the method: as §1

[6] = THP-1, differentiated THP-1 cells, LPS then nigericin
[7] = +GSH, 30 minute compound-GSH pre-incubation, read-out: NRF2 activation +GSH EC50
[8] = −GSH, U2OS PathHunter cells, 6 hours compound treatment, read-out: NRF2 activation −GSH EC50
[9] = differentiated THP-1 cells, LPS then nigericin
[10] = −GSH, Table 5 exo vs endo comparison, read-out: −GSH EC50
[11] = −GSH, Table 5 exo vs endo comparison
[12] = THP-1, Table 3, head to head comparison of exo vs endo double bond compounds
[13] = THP-1, differentiated THP-1 cells, data from repeated experiments

IC50 [1, 9]	SMILES	IC50 [1, 6]	hepatocyte CLint at 10 μM [2]	half-life at 10 μM [2]	EC50 [3, 7]	NRF2 activation +GSH Emax ([3]; +GSH)	EC50 [3, 8]	NRF2 activation −GSH Emax ([3]; −GSH)	IC50 [4, 6]	IL-1β lowering, result in words ([4]; THP-1 IL-1β assay)	hepatocyte CLint at 10 μM [5]	half-life at 10 μM [5]	EC50 [3, 10]	−GSH Emax [3, 11]	IC50 [4, 12]	NRF2 activation, result in words ([3]; −GSH and/or +GSH)	IC50 [1, 13]	IC50 [4, 13]
–	C=C(Cc1nc(C2(c3ccc(F)cc3)CC2)no1)C(=O)O [Example 44, 2-((3-(1-(4-fluorophenyl)cyclopropyl)-1,2,4-oxadiazol-5-yl)methyl)acrylic acid]	29.9 µM	10 µL/min/1e6 cells	144 min	> 100 µM	23%	28.7 µM	65%	> 100 µM	not effective	37 µL/min/1e6 cells	44 min	–	–	–	–	–	–
33.4 µM	C=C(Cc1noc(C2(c3ccc(Br)cc3)CC2)n1)C(=O)O [Example 89, 2-((5-(1-(4-bromophenyl)cyclopropyl)-1,2,4-oxadiazol-3-yl)methyl)acrylic acid]	–	38 µL/min/1e6 cells	41 min	42.2 µM	63%	30.7 µM	99%	12.2 µM	–	336 µL/min/1e6 cells	5 min	–	–	–	–	–	–
5.2 µM	C=C(Cc1cc(CCCCCCCC)on1)C(=O)O [Example 102, 2-((5-octylisoxazol-3-yl)methyl)acrylic acid]	–	> 460 µL/min/1e6 cells	< 3 min	9.5 µM	230%	7.2 µM	342%	7.4 µM	–	> 460 µL/min/1e6 cells	< 3 min	–	–	–	–	–	–
–	C=C(Cc1nc(CCCCCCCCC(F)(F)F)no1)C(=O)O [Example 60, 2-((3-(9,9,9-trifluorononyl)-1,2,4-oxadiazol-5-yl)methyl)acrylic acid]	6 µM	137 µL/min/1e6 cells	11 min	9 µM	110%	8.4 µM	195%	11.2 µM	–	257 µL/min/1e6 cells	6 min	–	–	–	–	–	–
–	C=C(Cc1nc(C2(c3ccc(SC(F)(F)F)cc3)CC2)no1)C(=O)O [Example 86, 2-((3-(1-(4-((trifluoromethyl)thio)phenyl)cyclopropyl)-1,2,4-oxadiazol-5-yl)methyl)acrylic acid]	9.4 µM	7 µL/min/1e6 cells	235 min	35 µM	221%	18 µM	320%	8.4 µM	–	17 µL/min/1e6 cells	103 min	18 µM	320%	8.4 µM	–	–	–
13.1 µM	C=C(Cc1nc(C(F)(F)c2ccc(SC(F)(F)F)cc2)no1)C(=O)O [Example 155, 2-((3-(difluoro(4-((trifluoromethyl)thio)phenyl)methyl)-1,2,4-oxadiazol-5-yl)methyl)acrylic acid]	–	8 µL/min/1e6 cells	201 min	13.7 µM	123%	11.2 µM	201%	9.1 µM	–	87 µL/min/1e6 cells	17 min	–	–	–	–	–	–
51.2 µM	C/C(=C\c1nc(C2(c3ccc(Br)cc3)CC2)no1)C(=O)O [Example 168]	–	69 µL/min/1e6 cells	18 min	> 100 µM	16%	1.4 µM	69%	33.6 µM	–	393 µL/min/1e6 cells	5 min	1.4 µM	69%	33.6 µM	more potent in NRF2 (-GSH) than Example 50	–	–
–	C=C(Cc1nc(C(C)CCCCCC)no1)C(=O)O (centres unmarked) [Example 8, 2-((3-(octan-2-yl)-1,2,4-oxadiazol-5-yl)methyl)acrylic acid]	14 µM	28 µL/min/1e6 cells	51 min	28.1 µM	167%	20.9 µM	175%	16.8 µM	–	143 µL/min/1e6 cells	10 min	–	–	–	–	–	–
–	C=C(C(=O)O)C(O)c1nc(CCCCCCCC)no1 (centres unmarked) [Example 108, 2-(hydroxy(3-octyl-1,2,4-oxadiazol-5-yl)methyl)acrylic acid]	8.3 µM	10 µL/min/1e6 cells	163 min	29 µM	213%	19.7 µM	299%	18.4 µM	–	438 µL/min/1e6 cells	4 min	–	–	–	–	–	–
–	C=C(Cc1nc(C2(c3ccc(C(F)(F)F)cc3)CC2)no1)C(=O)O [Example 22, 2-((3-(1-(4-(trifluoromethyl)phenyl)cyclopropyl)-1,2,4-oxadiazol-5-yl)methyl)acrylic acid]	–	20 µL/min/1e6 cells	84 min	60.2 µM	62%	48.7 µM	69%	10.9 µM	–	42 µL/min/1e6 cells	41 min	–	–	–	–	43.5 µM	8.7 µM
2.4 µM	C=C(Cc1nc(C(F)(F)c2ccc(CCCC)cc2)no1)C(=O)O [Example 91, 2-((3-((4-butylphenyl)difluoromethyl)-1,2,4-oxadiazol-5-yl)methyl)acrylic acid]	–	74 µL/min/1e6 cells	21 min	3.4 µM	190%	3.2 µM	231%	3.8 µM	–	320 µL/min/1e6 cells	6 min	–	–	–	–	–	–
18.5 µM	C=C(Cc1noc(C(F)(F)c2ccc(Br)cc2)n1)C(=O)O [Example 85, 2-((5-((4-bromophenyl)difluoromethyl)-1,2,4-oxadiazol-3-yl)methyl)acrylic acid]	–	20 µL/min/1e6 cells	77 min	34.7 µM	208%	21.6 µM	282%	13.6 µM	–	131 µL/min/1e6 cells	13 min	–	–	–	–	–	–
–	C=C(Cc1nc(CCCCCCC)no1)C(=O)O [Example 6, 2-((3-heptyl-1,2,4-oxadiazol-5-yl)methyl)acrylic acid]	26 µM	38 µL/min/1e6 cells	31 min	29.1 µM	170%	22.9 µM	190%	24.7 µM	–	185 µL/min/1e6 cells	9 min	–	–	–	–	–	–
–	C=C(Cc1nc(CCCCCCCCCCC)no1)C(=O)O [Example 56, 2-((3-undecyl-1,2,4-oxadiazol-5-yl)methyl)acrylic acid]	3.3 µM	> 460 µL/min/1e6 cells	< 3 min	3.1 µM	110%	2.8 µM	175%	3.4 µM	–	> 460 µL/min/1e6 cells	< 3 min	–	–	–	–	–	–
–	C=C(Cc1nc(C(F)(F)CCCCCCC)no1)C(=O)O [Example 88, 2-((3-(1,1-difluorooctyl)-1,2,4-oxadiazol-5-yl)methyl)acrylic acid]	2.8 µM	134 µL/min/1e6 cells	12 min	3 µM	205%	2.8 µM	237%	3.1 µM	–	> 460 µL/min/1e6 cells	< 3 min	–	–	–	–	–	–
–	C=C(Cc1nc(-c2ccc(C3(CCC)CC3)cc2)no1)C(=O)O [Example 72, 2-((3-(4-(1-propylcyclopropyl)phenyl)-1,2,4-oxadiazol-5-yl)methyl)acrylic acid]	4.4 µM	69 µL/min/1e6 cells	27 min	19.5 µM	151%	14.6 µM	189%	7 µM	–	28 µL/min/1e6 cells	43 min	–	–	–	–	–	–
–	C=C(Cc1nc(Cc2ccc(C3CCCC3)cc2)no1)C(=O)O [Example 112, 2-((3-(4-cyclopentylbenzyl)-1,2,4-oxadiazol-5-yl)methyl)acrylic acid]	4.4 µM	25 µL/min/1e6 cells	61 min	10.7 µM	283%	7.3 µM	284%	14.2 µM	–	160 µL/min/1e6 cells	12 min	–	–	–	–	–	–
